{
  "source": "patent US20020077355A1",
  "about": "“Use of epoxyeicosatrienoic acids in the treatment of cerebrovascular conditions” (priority 2000, published 2002)",
  "key": {"[1]": {"tested_on": "rat cerebellar granule cell (CGC) cultures", "test": "Dihydroethidine study to monitor intracellular superoxide production", "format": "cell-based", "conditions": "CGC cultures during H2O2 treatment, 11,12-EET 1.2 μM", "experimental": "(§1) Cerebellar cortices of postnatal day 7 rat pups were isolated, incubated in 0.25% trypsin for 20 min and triturated with a 10-cc Falcon pipette. Cells were plated on Falcon plastic dishes ˜100,000 cells/cm^2 in BME medium containing 25 mM KCl. Cell cultures were maintained in a humidified 5% CO2 /37° C. incubator. 10 μM AraC was added from day 2-3 in vitro to suppress glial proliferation. Cells were studied at day 7-8 in vitro.\nDihydreothidine study to monitor intracellular superoxide production: 10 μl of dihydroethidine stock solution (1 mg/cc) in dimethylsulfoxide (DMSO) and 4 μl of H2O2 were added to 4cc of Eagle's Basal Medium (medium A). Each 2-cm^2 well of containing neuronal cell culture was preincubated with 11.12-EET (1.2 μM) for an hour and was replaced with 250 μL of medium A in the presence or absence of 11,12-EET (1.2 μM). […]\n(§2) To test the effects of EET during oxidative stress, rat cerebellar granule cell (CGC) cultures were subjected to H2O2 treatment (225 μM for 10 min.). Less apoptosis was found at 24 hour when 11,12-EET (1.2 μM) was present compared to cell culture without 11,12-EET (51.7% vs. 87.6% respectively, p<0.01, scored by Hoechst stain for nuclear condensation). In addition, superoxide production (as monitored by oxidation of dihydroethidine) was decreased when 11,12-EET was present in CGC cultures during H2O2 treatment."}, "[2]": {"tested_on": "regional cerebral blood flow (rCBF) in mice", "test": "Regional cerebral blood flow by laser Doppler flowmetry after MCA occlusion", "format": "in vivo", "experimental": "In a separate set of ventilated, halothane-anesthetized animals, regional cerebral blood flow (rCBF) was determined at the margins (“penumbra”) of ischemic infarcts using laser Doppler flowmetry (Perimed, PF-2B, Stockholm, Sweden) and recorded on a MacLab/8 data acquisition system (AD Instruments, Milford, Mass.). the left femoral artery and vein were cannulated for blood pressure measurement, blood gas determination and drug administration, a fiberoptic probe (Perimed PF-319:2, diameter=0.5 mm) was fixed to the skull, 4 mm lateral and 2 mm posterior to bregma on the ipsilateral hemisphere and away from large pial vessels. This coordinate identifies the site on the convex brain surface within the vascular territory supplied by the distal segment of the MCA (Huang, Z et al., Science, 1994, 265:1883-1885; Yang, G et al., Stroke, 1994, 25:165-70). rCBF was recorded continuously before, during and after MCA occlusion. The mean values after MCA occlusion and before administration were taken as baseline, and the data thereafter were expressed as percentages of the baseline value. The percent change in cerebrovascular resistance was calculated using the following formula: Δ%R=Δ% MABP/Δ% rCBF, where Δ% MABP is percent change in mean arterial blood pressure.\n(§3) Data is expressed as means ±SE. Statistical evaluation was performed by Student's t-test to compare infarct volumes between groups. Analysis of variance with repeated measures followed by Dunnett's t-test was used to test the significance of rCBF and resistance changes between groups. p<0.05 was considered statistically significant.\nPhysiological variables during laser-Doppler flowimetry in anesthetized, ventilated, EET-treated and vehicle-treated mice are shown in FIGS. 2 and 3. Values are reported as mean +/− SEM. CBF denotes cerebral blood flow; MABP indicates mean arterial blood pressure.\nFIG. 2 is a graph showing regional CBF changes in EET-treated and vehicle-treated mice for 80 min after EET (300 μg/kg total dose) or vehicle infusion at a constant rate of 100 μl/kg/min over 20 min. Error bars denote standard error of the mean (SEM); CBF change with baseline control was determined by one-way ANOVA followed by Fisher's protected least-squares difference test. The increase in rCBF began at 5-10 minutes and achieved statistical significance at 10-15 minutes after infusion. Maximum values achieved at 40-60 min reached 50% above baseline levels."}, "[3]": {"tested_on": "mice subjected to middle cerebral artery occlusion", "test": "Focal cerebral ischemia by middle cerebral artery occlusion, infarct volume", "format": "in vivo", "conditions": "for Infarct Volume, individual animal / Infarct Volume, Mean: mice, MCA occlusion; for Infarct Volume, individual animal: 24 hours", "excerpt": "Young adult male mice (C57B1/J6, Jackson Laboratories) weighing 20-25 g, were given free access to food and water prior to experimentation.\n(§4) Ischemia was produced by occluding the left middle cerebral artery (MCA) with a silicon-coated 8-0 nylon monofilament under anesthesia as described (Huang, Z et al., J Cereb Blood Flow Metab, 1996, 16:981-987, Huang, Z et al., Science, 1994, 265:1883-1885, Hara, H et al., J Cereb Blood Flow Metab, 1997, 1:515-526). Arterial blood pressure, heart rate, arterial oxygen pressure, and partial pressure of carbon dioxide were monitored as described (Huang, Z et al., J Cereb Blood Flow Metab, 1996, 16:981-987, Huang, Z et al., Science, 1994, 265:1883-1885, Hara, H et al., J Cereb Blood Flow Metab, 1997, 1:515-526).\n11,12 EET (Sigma Chemical Co., St Louis, Mo.) or vehicle was administered by an infusion pump (Harvard Apparatus, South Natick, Mass.) with a tethering device (Instech, Plymouth Meeting, Pa.) into the femoral vein at the rate of 0.2 ml/hour for 2 hours beginning after the onset of ischemia to deliver a dose of 30, 100, and/or 300 μg/kg/hour. Control animals received the equivalent amount of vehicle alone. During infusion, the anesthesia was discontinued. […] After infusion, the animals were re-anesthetized with halothane and the venous catheter was removed. The filaments were withdrawn after 2 hours and after 24 hours, and mice were sacrificed. Brains were divided into five coronal 2-mm sections using a mouse brain matrix (RBM-200C, Activated Systems, Ann Arbor, Mich., USA). Infarction volume was quantitated with an image analysis system (M4, St. Catharines, Ontario, Canada) on 2% 2,3,5-triphenyltetrazolium chloride (Sigma Chemical Co., St Louis, Mo.) stained 2-mm slices.\nas §3"}, "[4]": {"tested_on": "rat cerebellar granule cell (CGC) cultures", "test": "H2O2 oxidative stress, apoptosis scored by Hoechst stain for nuclear condensation", "format": "cell-based", "conditions": "H2O2 225 μM for 10 min, 11,12-EET 1.2 μM present; without 11,12-EET 87.6%; p<0.01", "experimental": "as §1, §2"}, "[5]": {"tested_on": "mean arterial blood pressure (MABP) in mice", "test": "Mean arterial blood pressure in animals with focal cerebral ischemia", "format": "in vivo", "conditions": "FIG. 3", "excerpt": "as §4\nIn a separate set of ventilated, halothane-anesthetized animals, regional cerebral blood flow (rCBF) was determined at the margins (“penumbra”) of ischemic infarcts using laser Doppler flowmetry (Perimed, PF-2B, Stockholm, Sweden) and recorded on a MacLab/8 data acquisition system (AD Instruments, Milford, Mass.). the left femoral artery and vein were cannulated for blood pressure measurement, blood gas determination and drug administration, a fiberoptic probe (Perimed PF-319:2, diameter=0.5 mm) was fixed to the skull, 4 mm lateral and 2 mm posterior to bregma on the ipsilateral hemisphere and away from large pial vessels. […]"}},
  "note": "Values joined by “and” are separate entries in the source; they are usually repeats but may differ in a detail not shown here. Equal values may be shown once.",
  "data": [
    {"smiles": "CCCCC/C=C\\CC1OC1C/C=C\\C/C=C\\CCCC(=O)O", "note": "(stereo not drawn) [EET, 11,12-epoxyeicosatrienoic acid]", "values": [
      {"measurement": "Superoxide production (oxidation of dihydroethidine)", "setting": "[1]", "value": "decreased"},
      {"measurement": "Time at which the increase in rCBF began", "setting": "[2]; 300 μg/kg i.v.", "value": "5 to 10", "unit": "min"},
      {"measurement": "Effect on rCBF in parietal cortex", "setting": "[2]; 300 μg/kg i.v. total dose infused over 20 min, vehicle did not increase rCBF", "value": "increased rCBF"},
      {"measurement": "Time at which the rCBF increase achieved statistical significance", "setting": "[2]; 300 μg/kg i.v., after infusion", "value": "10 to 15", "unit": "min"},
      {"measurement": "Maximum rCBF above baseline levels", "setting": "[2]; 300 μg/kg i.v., at 40-60 min", "value": 50, "unit": "%"},
      {"measurement": "Reduction of infarct volume in comparison to vehicle-treated animals", "setting": "[3]; 300 μg/kg group, n=7, p<0.05", "value": "at least 41%"},
      {"measurement": "Infarct volume, of hemispheric volume", "setting": "[3]; 300 μg/kg group, n=7, vehicle 34±3, means ±SE", "value": "20±3"},
      {"measurement": "Infarct Volume, individual animal", "setting": "[3]; EET 30 μg/kg i.v. infusion", "value": "32.4 mm^3 and 43.0 mm^3 and 41.9 mm^3 and 27.7 mm^3 and 37.4 mm^3 and 23.7 mm^3"},
      {"measurement": "Infarct Volume, Mean", "setting": "[3]; EET 30 μg/kg, n=6", "value": 34.3, "unit": "mm^3"},
      {"measurement": "Infarct Volume, individual animal", "setting": "[3]; EET 100 μg/kg i.v. infusion", "value": "34.1 mm^3 and 37.6 mm^3 and 22.4 mm^3 and 16.3 mm^3 and 24.5 mm^3 and 38.6 mm^3 and 11.8 mm^3"},
      {"measurement": "Infarct Volume, Mean", "setting": "[3]; EET 100 μg/kg, n=7", "value": 26.5, "unit": "mm^3"},
      {"measurement": "Infarct Volume, individual animal", "setting": "[3]; EET 300 μg/kg i.v. infusion", "value": "32.5 mm^3 and 13.4 mm^3 and 13.1 mm^3 and 28.3 mm^3 and 11.8 mm^3 and 25.6 mm^3 and 13.6 mm^3"},
      {"measurement": "Infarct Volume, Mean", "setting": "[3]; EET 300 μg/kg, n=7", "value": 19.7, "unit": "mm^3"},
      {"measurement": "Apoptosis at 24 hour", "setting": "[4]", "value": 51.7, "unit": "%"},
      {"measurement": "Change in MABP, EET-treated vs. vehicle-treated animals", "setting": "[5]", "value": "No significant changes"}
    ]}
  ]
}
